Source: paper PMC12731536, “Sc(III) Complexes of Pyclen Derivative Ligands as Probes for Hypoxia: Synthesis, Chemical Characterization, ^44Sc‐Radiolabeling, and Preclinical Assessment” (Chemistry (Weinheim an Der Bergstrasse, Germany), 2025)

Key:
Assay type in all cases: physicochemical
[1] = pH‐potentiometric determination of ligand protonation constants; conditions: I = 1.00 M NaCl, T = 25 °C
Protocol: The equilibrium study of the PC2AM^nBu ligand has been started by determining the protonation constants in 0.15 M and 1.00 M NaCl ionic strength. (As the stability of the Sc(III) complex was determined in 1.00 M ionic strength, we had to perform the pH‐potentiometric titration of ligands using 1.00 M ionic strengths also.) The results of pH‐potentiometric measurement are shown in Table 1, where the corresponding data for 3,9‐PC2A,^[ [42] ^] PCTA ^[ [46] ^] and PC2AM‐NI ligands determined under identical conditions are also presented. Knowledge of the protonation constants defined by Eqn. 1 and 2 are essential for the calculation of the stability constants of the Sc(III) complexes:
(1) PC2AM^nBu^2−+nH^+⇌Hn(PC2AM^nBu)^−2+n (2) βn=HnPC2AM^nBu^−2+n/PC2AM^nBu^2−H^+^n
The protonation constants of the ligands, as well as the concentrations of the ligand stock solutions, were determined by pH‐potentiometric method using a Metrohm 785 DMP Titrino automatic titrator using a Metrohm 6.00234.100 combined glass electrode. The titrations were carried out in the pH range 1.75–11.80 and the pH electrode was calibrated by a two‐point calibration routine with the use of 0.05 M KH‐phthalate (pH = 4.005) and 0.01 M borax (pH = 9.177 buffers. The samples were stirred at 25 °C (±0.1 °C) and N2 gas bubbled into the system to ensure inert conditions and to eliminate the effect of the presence of CO2. For the calculation of [H^+] from the measured pH values, the method proposed by Irving et al. was applied.^[ [61] ^] For this, a 0.01 M HCl solution was titrated with the standardized NaOH solution in the presence of 0.15 M NaCl ionic strength at 25 °C. The differences between the measured (pHread) and calculated pH (‐log[H^+]) values were used to obtain the equilibrium H^+ concentration from the pHmeas values during the titrations. By fitting the resulting titration curves (pH – V (NaOH) data pairs) with the PSEQUAD program, the protonation constants of the ligands were determined.^[ [47] ^] The titration of the [Sc(PC2AM^nBu)]^+ with NaOH was performed with the same method by applying very similar conditions.

[2] = Time course of Sc(III) complex formation, 45Sc NMR; conditions: ‐log[H^+] = 1.28, 25 °C
Protocol: The time course of complex formation of PC2AM^nBu and PCTA ligands with Sc(III) ion was investigated by ^45Sc‐NMR under acidic conditions (cSc = cligand = 10 mM and 9.5 mM, respectively, ‐log[H^+] = 1.28). The decrease of the narrow signal of the free Sc(III) ion was monitored as a function of time. […] The kinetic measurements of formation could be seen in Figures S18 and S19. The complexation for the [Sc(PCTA)] chelate at pH = 1.28 and 25 °C took about 300 minutes to reach the equilibrium, whereas for the [Sc(PC2AM^nBu)]^+ complex it took a bit longer time under these conditions. (In order to confirm that the samples reached the equilibrium, we have repeated the ^45Sc NMR study for both samples after a few days when the signal of the free Sc(III) was absent, and only the signals of the complexes were detected.) The detailed study of formation kinetics was not our aim in this project. One can expect that the reaction follows the well‐known mechanisms of M(III) ‐ macrocyclic APC systems ^[ [54] ^]: formation of a protonated intermediate in fast pre‐equilibrium followed by a slow, base‐catalyzed deprotonation/structural rearrangement as a rate‐determining step. The intermediate is named also as “out‐of‐cage complex.”^[ [55] ^] Our experimental curves are likely in accordance with this mechanism. Fitting the measured data for the free Sc(III) signals by a monoexponential function gives the rate constant k obs = (1.04 ± 0 .05) x 10^−4 s^−1 for the [Sc(PC2AM^nBu)]^+ and k obs = (2.51 ± 0.12) x 10^−4 s^−1 for the [Sc(PCTA)] complex. […] The relatively fast complex formation at the given acidic condition is very encouraging for the Sc(III) labeling experiments.
^45Sc NMR measurements (97 MHz) were performed on a Bruker DRX 400 (9.4 T) spectrometer equipped with a Bruker VT‐1000 thermocontroller and a BB inverse z‐gradient probe (5 mm). The kinetic experiments were performed at 25 °C in aqueous solution, using D2O (10% v/v) as a lock solvent. Typical parameters for 45Sc NMR measurements were used: TD = 32k, p1 = 15.6 µs (90°), d 1 = 0.1 s. The formation reactions of the [Sc(PC2AM^nBu)]^+ and [Sc(PCTA)] complexes were monitored by ^45Sc NMR spectroscopy in two sample types: one containing 10.0 mM PC2AM^nBu and ScCl3 / 9.5 mM […] and ScCl3. In both cases, the total acid concentration corresponded to a pH of 1.28. Obtained monoexponential curves (signal area of free Sc(III) vs. time) were fitted using Scientist software ^[ [62] ^] to determine the formation rate.

[3] = Fluoride binding of [Sc(PC2AM^nBu)]^+ (ternary complex stability), 19F NMR titration; conditions: stability constant of the ternary fluoride complex, 19F NMR, pH = 5.2, I = 0.15 M NaCl, 25 °C
Source text: Sc(III) is a typical “hard” cation, forming very stable complexes with fluoride anion.^[ [51], [52] ^] […] The formation of the ternary [Sc(PC2AM^nBu)(F)] complex can be followed by […], as two sets of signals (Δδ ∼ 20 Hz) indicate a slow exchange regime on the […] time scale (Figure S16). Measuring the intensities of the free and bound fluoride signals, the stability constant (Eqn. 6) of the [Sc(PC2AM^nBu)(F)] complex (Eqn. 5) can be calculated (Table S1).
(5) [Sc(PC2AM^nBu)]^++F^−⇌[Sc(PC2AM^nBu)(F)] (6) KScLF=ScPC2AM^nBuF/[ScPC2AM^nBu^+]F^−
Table S1. Summary of data used for the calculation of the stability constant, log K[Sc(PC2AM^nBu)(F)] by titration of 0.005M [Sc(PC2AM^nBu)]^+ parent complex with different amounts of F^- (0.005 - 0.01 M concentration range) followed by 376.4 MHz ^19F NMR (I = 0.15 M NaCl, c Sc(PC2AM^nBu) = 5 mM, pH=5.20, T= 298 K).

log K 1 ^H [1]	log K 2 ^H [1]	log K 3 ^H [1]	log K 4 ^H [1]	log β 2 ^H [1]	log K ScLF [3]	Structure (SMILES)	half‐life of the complex formation reaction (t 1/2 = ln2 / k obs) [2] [h]
9.22(6)	7.30(8)	4.09 (9)	1.42(8)	16.52		O=C(O)CN1CCN(CC(=O)O)Cc2cccc(n2)CN(CC(=O)O)CC1 [PCTA, reference compound]	
					2.5(2)	CCCCNC(=O)CN1CCN(CC(=O)[O-])Cc2cccc(n2)CN(CC(=O)[O-])CC1.[Sc+3] [[Sc(PC2AM^nBu)]^+]	1.83
